Results reported in patent US20110190280A1, “Thiazole And Oxazole Kinase Inhibitors” (priority 2007, published 2011).
pIC50: −log10 of the molar value.

Key:
B-Raf = B-Raf (Homo sapiens, UniProt P15056); assay: B-Raf Accelerated MEK ATPase assay (BRAMA); assay type: biochemical; details: BRAMA enzyme assay; class by pIC50; read-out: B-Raf Activity
In short: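 B-Raf activity read as intrinsic MEK ATPase: catalytic activated RAF with non-phosphorylated MEK drives ADP formation, coupled through pyruvate kinase and lactate dehydrogenase to NADH oxidation, independent of ERK phosphorylation.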

SK-MEL-3 tumor cells = assay: Cell growth inhibition assay (CellTiter-Glo), SK-MEL-3; details: Homo sapiens, SK-MEL3, 72 h, read-out: Activity in SK-MEL-3 Tumor Cells;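 also: human melanoma cells grown with compound for 3 days in 0.2% DMSO, total ATP read by luminescence as proxy for cell number, growth inhibition versus DMSO-treated wells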
HT-29 tumor cells = assay: Cell growth inhibition assay (CellTiter-Glo), HT-29; details: Homo sapiens, HT-29, 72 h, read-out: Activity in HT-29 Tumor Cells;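 also: ATP content read by luminescence as proxy for cell number, growth inhibition versus DMSO vehicle wells, 0.2% DMSO final, nine serial threefold compound dilutions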
Description: (§1) Cell Growth Inhibition Assays Human colon tumor cells (Colo205) were cultured in RPMI (Mediatech 50-020-PB) containing 10% FBS and 1% penicillin-streptomycin. […] Human melanoma cancer cells (A375-F11S) were cultured in RPMI (Mediatech 50-020-PB) containing 10% FBS, 1% sodium pyruvate, and 1% penicillin-streptomycin. Human colon cancer cells (HT-29) were cultured in high glucose DMEM (Mediatech 50-013-PB) containing 10% FBS and 1% penicillin-streptomycin. Human melanoma cancer cells (SK-MEL-3) were cultured in McCoy's 5A (50-025-PB) containing 15% FBS, and 1% penicillin-streptomycin. All cell lines were maintained at 37° C. in a humidified 5% CO2, 95% air incubator.
(§2) The next day, compounds were diluted as follows: For 96-well assays, 13.5 μl of compound in DMSO were diluted using nine (9) serial 1:3 dilutions of 4.5 μl in 9 μl of DMSO. Medium (270 μl/well of RPMI with 10% FBS and 1% penicillin-streptomycin) was added to the plates. Aliquots (7 μl) were added to cells in the final assay giving a final DMSO concentration of 0.2%. For 384-well assays, 15 μl of compound in DMSO were diluted using nine (9) serial 1:3 dilutions of 5 μl in 10 μl of DMSO, followed by a further dilution of 5 μl of compound with 95 μl of medium, of which 2 μl are added to cells in the final assay giving a final DMSO concentration of 0.2%. Cells were incubated at 37° C., 5% CO2 for 3 days.
(§3) Total ATP was measured (as a surrogate estimate of cell number) using CellTiter-Glo® (Promega G7571) reagent. Briefly, plates were removed from the incubator and allowed to equilibrate to room temperature for 30 minutes. CellTiter-Glo® (25 μl or 55 μl for 384-well or 96-well assays, respectively) reagent was added to each well and plates were shaken on an orbital plate shaker for 2 minutes. Plates were incubated without shaking for a further 30 minutes and read on an LJL Analyst GT reader in luminometer mode with an integration time of 0.5 seconds per well. Percent inhibition of cell growth was calculated relative to DMSO vehicle-treated control wells.

Colo205 tumor cells = assay: Cell growth inhibition assay (CellTiter-Glo), Colo205; details: Homo sapiens, COLO 205, 72 h, read-out: Activity in Colo205 Tumor Cells;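 also: growth measured via total ATP luminescence (CellTiter-Glo) as a proxy for cell number, inhibition expressed against DMSO-treated control wells, 3-day exposure at 0.2% final DMSO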
Description: as §1, §2, §3

A375P tumor cells = assay: Cell growth inhibition assay (CellTiter-Glo), A375P; details: Homo sapiens, 72 h, read-out: Activity in A375P Tumor Cells;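 also: total ATP luminescence used as proxy for cell number, serial threefold compound dilutions at 0.2% DMSO, growth inhibition expressed versus DMSO vehicle-treated wells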
SK-MEL-28 tumor cells = assay: Cell growth inhibition assay (CellTiter-Glo), SK-MEL-28; details: Homo sapiens, SK-MEL-28, 72 h, read-out: Activity in SK-MEL-28 Tumor Cells;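 also: luminescent total ATP as a proxy for cell number, threefold serial dilutions at 0.2% DMSO, percent growth inhibition versus DMSO vehicle control wells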

Sequence of B-Raf (P15056 whole entry): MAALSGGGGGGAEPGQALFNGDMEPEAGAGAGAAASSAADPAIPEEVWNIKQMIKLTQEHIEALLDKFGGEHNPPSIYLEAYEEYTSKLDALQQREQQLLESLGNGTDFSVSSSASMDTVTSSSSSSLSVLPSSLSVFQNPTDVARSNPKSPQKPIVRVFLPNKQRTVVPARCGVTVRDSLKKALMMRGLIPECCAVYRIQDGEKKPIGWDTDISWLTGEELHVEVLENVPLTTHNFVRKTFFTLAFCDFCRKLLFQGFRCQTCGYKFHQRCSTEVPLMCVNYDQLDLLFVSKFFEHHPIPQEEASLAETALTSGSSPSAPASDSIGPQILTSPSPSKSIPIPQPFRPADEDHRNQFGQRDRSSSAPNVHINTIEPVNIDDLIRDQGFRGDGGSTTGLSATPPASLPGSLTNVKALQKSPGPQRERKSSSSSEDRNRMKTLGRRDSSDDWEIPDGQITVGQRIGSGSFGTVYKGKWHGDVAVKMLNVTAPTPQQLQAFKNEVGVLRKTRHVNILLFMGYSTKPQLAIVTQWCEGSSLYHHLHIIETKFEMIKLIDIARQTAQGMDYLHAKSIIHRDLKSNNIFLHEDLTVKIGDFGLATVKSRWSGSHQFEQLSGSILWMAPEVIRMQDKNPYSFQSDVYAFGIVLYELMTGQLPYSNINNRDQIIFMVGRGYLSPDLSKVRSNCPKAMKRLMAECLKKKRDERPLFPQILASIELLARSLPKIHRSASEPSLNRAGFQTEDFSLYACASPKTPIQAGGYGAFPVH

| SMILES | pIC50 (B-Raf) | pIC50 (SK-MEL-3 tumor cells) | pIC50 (HT-29 tumor cells) | pIC50 (Colo205 tumor cells) | pIC50 (A375P tumor cells) | pIC50 (SK-MEL-28 tumor cells) |
| --- | --- | --- | --- | --- | --- | --- |
| CCNc1nc(-c2cc(C)cc(OC)c2)c(-c2ccnc(Nc3ccc(OCCOC)c(F)c3)n2)s1 [Example 38, 4-{2-(Ethylamino)-4-[3-methyl-5-(methyloxy)phenyl]-1,3-thiazol-5-yl}-N-(3-fluoro-4-{[2-(methyloxy)ethyl]oxy}phenyl)-2-pyrimidinamine] | > 7.00 | > 6.30 | > 6.30 | > 6.30 | > 6.30 | 5.30 to 6.30 |
| CCNc1nc(-c2cccc(OC)c2)c(-c2ccnc(Nc3ccc(N4CCOCC4)nc3)n2)s1 [Example 42, 4-{2-(Ethylamino)-4-[3-(methyloxy)phenyl]-1,3-thiazol-5-yl}-N-[6-(4-morpholinyl)-3-pyridinyl]-2-pyrimidinamine] | > 7.00 | > 6.30 | > 6.30 | > 6.30 | > 6.30 | 5.30 to 6.30 |
| CCNc1nc(-c2cccc(N(C)C)c2)c(-c2ccnc(Nc3ccc(OCCN4CCCC4)c(Cl)c3)n2)s1 [Example 45, N-(3-Chloro-4-{[2-(1-pyrrolidinyl)ethyl]oxy}phenyl)-4-[4-[3-(dimethylamino)phenyl]-2-(ethylamino)-1,3-thiazol-5-yl]-2-pyrimidinamine] | > 7.00 | 5.30 to 6.30 | > 6.30 | 5.30 to 6.30 | 5.30 to 6.30 | 5.30 to 6.30 |
| CCNc1nc(-c2cccc(N(C)C)c2)c(-c2ccnc(Nc3ccc(N4CCOCC4)nc3)n2)s1 [Example 47, 4-[4-[3-(Dimethylamino)phenyl]-2-(ethylamino)-1,3-thiazol-5-yl]-N-[6-(4-morpholinyl)-3-pyridinyl]-2-pyrimidinamine] | > 7.00 | > 6.30 | > 6.30 | 5.30 to 6.30 | > 6.30 | < 5.30 |
| CCNc1nc(-c2ccc(Cl)c(OC)c2)c(-c2ccnc(Nc3ccc(OCCN4CCCC4)c(Cl)c3)n2)s1 [Example 49, 4-[4-[4-Chloro-3-(methyloxy)phenyl]-2-(ethylamino)-1,3-thiazol-5-yl]-N-(3-chloro-4-{[2-(1-pyrrolidinyl)ethyl]oxy}phenyl)-2-pyrimidinamine] | > 7.00 | > 6.30 | > 6.30 | 5.30 to 6.30 | > 6.30 | 5.30 to 6.30 |
| COc1cc(-c2nc(NC3CC3)sc2-c2ccnc(Nc3ccc(OCCN4CCCC4)c(Cl)c3)n2)ccc1Cl [Example 51, 4-[4-[4-Chloro-3-(methyloxy)phenyl]-2-(cyclopropylamino)-1,3-thiazol-5-yl]-N-(3-chloro-4-{[2-(1-pyrrolidinyl)ethyl]oxy}phenyl)-2-pyrimidinamine] | > 7.00 | > 6.30 | > 6.30 | > 6.30 | 5.30 to 6.30 | 5.30 to 6.30 |
| CCNc1nc(-c2ccc3c(c2)OCO3)c(-c2ccnc(Nc3ccc(OC4CCN(CCS(C)(=O)=O)CC4)c(F)c3)n2)s1 [Example 52, 4-[4-(1,3-Benzodioxol-5-yl)-2-(ethylamino)-1,3-thiazol-5-yl]-N-[3-fluoro-4-({1-[2-(methylsulfonyl)ethyl]-4-piperidinyl}oxy)phenyl]-2-pyrimidinamine] | > 7.00 | > 6.30 | > 6.30 | > 6.30 | > 6.30 | > 6.30 |
| CCNc1nc(-c2ccc3c(c2)OCO3)c(-c2ccnc(Nc3ccc(N4CCN(C(C)=O)CC4)nc3)n2)s1 [Example 53, N-[6-(4-Acetyl-1-piperazinyl)-3-pyridinyl]-4-[4-(1,3-benzodioxol-5-yl)-2-(ethylamino)-1,3-thiazol-5-yl]-2-pyrimidinamine] | > 7.00 | > 6.30 | > 6.30 | > 6.30 | > 6.30 | 5.30 to 6.30 |
| CCNc1nc(-c2ccc(Cl)c(C)c2)c(-c2ccnc(Nc3ccc(OCCN4CCCC4)c(Cl)c3)n2)s1 [Example 54, 4-[4-(4-Chloro-3-methylphenyl)-2-(ethylamino)-1,3-thiazol-5-yl]-N-(3-chloro-4-{[2-(1-pyrrolidinyl)ethyl]oxy}phenyl)-2-pyrimidinamine] | > 7.00 | > 6.30 | > 6.30 | > 6.30 | 5.30 to 6.30 | 5.30 to 6.30 |
| CCNc1nc(-c2cc(OC)ccc2F)c(-c2ccnc(Nc3ccc(N4CCN(C)CC4)c(F)c3)n2)s1 [Example 56, 4-{2-(Ethylamino)-4-[2-fluoro-5-(methyloxy)phenyl]-1,3-thiazol-5-yl}-N-[3-fluoro-4-(4-methyl-1-piperazinyl)phenyl]-2-pyrimidinamine] | > 7.00 | > 6.30 | > 6.30 | > 6.30 | > 6.30 | 5.30 to 6.30 |
| CCNc1nc(-c2cc(OC)ccn2)c(-c2ccnc(Nc3ccc(OCCN4CCCC4)c(Cl)c3)n2)s1 [Example 57, N-(3-Chloro-4-{[2-(1-pyrrolidinyl)ethyl]oxy}phenyl)-4-{2-(ethylamino)-4-[4-(methyloxy)-2-pyridinyl]-1,3-thiazol-5-yl}-2-pyrimidinamine] | > 7.00 | > 6.30 | > 6.30 | 5.30 to 6.30 | > 6.30 | 5.30 to 6.30 |
| COc1cccc(-c2nc(C(C)C)sc2-c2ccnc(Nc3ccc(OC4CCN(C(C)C)CC4)c(F)c3)n2)c1 [Example 59, N-(3-Fluoro-4-{[1-(1-methylethyl)-4-piperidinyl]oxy}phenyl)-4-{2-(1-methylethyl)-4-[3-(methyloxy)phenyl]-1,3-thiazol-5-yl}-2-pyrimidinamine] | > 7.00 | > 6.30 | > 6.30 | > 6.30 | 5.30 to 6.30 | 5.30 to 6.30 |
| COc1cccc(-c2nc(CO)sc2-c2ccnc(Nc3ccc(OCCN4CCCC4)c(F)c3)n2)c1 [Example 60, {5-{2-[(3-Fluoro-4-{[2-(1-pyrrolidinyl)ethyl]oxy}phenyl)amino]-4-pyrimidinyl}-4-[3-(methyloxy)phenyl]-1,3-thiazol-2-yl}methanol] | > 7.00 | > 6.30 | > 6.30 | > 6.30 | 5.30 to 6.30 | 5.30 to 6.30 |
| COc1cc(C)cc(-c2nc(C(C)C)sc2-c2ccnc(Nc3ccc(N4CCN(CCS(C)(=O)=O)CC4)c(F)c3)n2)c1 [Example 62, N-(3-Fluoro-4-{4-[2-(methylsulfonyl)ethyl]-1-piperazinyl}phenyl)-4-{2-(1-methylethyl)-4-[3-methyl-5-(methyloxy)phenyl]-1,3-thiazol-5-yl}-2-pyrimidinamine] | > 7.00 | > 6.30 | > 6.30 | 5.30 to 6.30 | > 6.30 | 5.30 to 6.30 |
| CCc1nc(-c2cc(CO)cc(OC)c2)c(-c2ccnc(Nc3ccc(N4CCN(C(C)=O)CC4)nc3)n2)s1 [Example 65, [3-[5-(2-{[6-(4-Acetyl-1-piperazinyl)-3-pyridinyl]amino}-4-pyrimidinyl)-2-ethyl-1,3-thiazol-4-yl]-5-(methyloxy)phenyl]methanol] | > 7.00 | 5.30 to 6.30 | 5.30 to 6.30 | 5.30 to 6.30 | 5.30 to 6.30 | 5.30 to 6.30 |
| CCc1nc(-c2cc(C)cc(CO)c2)c(-c2ccnc(Nc3ccc(N4CCN(S(C)(=O)=O)CC4)nc3)n2)s1 [Example 66, (3-{2-Ethyl-5-[2-({6-[4-(methylsulfonyl)piperazin-1-yl]pyridin-3-yl}amino)pyrimidin-4-yl]-1,3-thiazol-4-yl}-5-methylphenyl)methanol] | > 7.00 | > 6.30 | > 6.30 | > 6.30 | > 6.30 | 5.30 to 6.30 |
| CCc1nc(-c2cccc(CO)c2)c(-c2ccnc(Nc3ccc(N4CCOCC4)c(F)c3)n2)s1 [Example 67, {3-[2-Ethyl-5-(2-{[3-fluoro-4-(4-morpholinyl)phenyl]amino}-4-pyrimidinyl)-1,3-thiazol-4-yl]phenyl}methanol] | > 7.00 | > 6.30 | > 6.30 | 5.30 to 6.30 | > 6.30 | 5.30 to 6.30 |
| CCNc1nc(-c2cc(C)cc(OC)c2)c(-c2ccnc(Nc3ccc(N4CC[C@@H](F)C4)nc3)n2)o1 [Example 81] | > 7.00 | 5.30 to 6.30 | 5.30 to 6.30 | 5.30 to 6.30 | 5.30 to 6.30 | 5.30 to 6.30 |
| CCNc1nc(-c2cc(OC)cc(OC)c2)c(-c2ccnc(Nc3ccc(OC4CCN(CCOC)CC4)c(F)c3)n2)o1 [Example 89] | > 7.00 | > 6.30 | 5.30 to 6.30 | 5.30 to 6.30 | 5.30 to 6.30 | 5.30 to 6.30 |
| CCNc1nc(-c2cc(OC)cc(OC)c2)c(-c2ccnc(Nc3cc(F)c(OC4CCN(CCS(C)(=O)=O)CC4)c(F)c3)n2)o1 [Example 90] | > 7.00 | > 6.30 | > 6.30 | > 6.30 | 5.30 to 6.30 | > 6.30 |
| CCNc1nc(-c2cc(OC)cc(OC)c2)c(-c2ccnc(Nc3ccc(OC4CCN(CCS(C)(=O)=O)CC4)c(Cl)c3)n2)o1 [Example 92] | > 7.00 | 5.30 to 6.30 | 5.30 to 6.30 | 5.30 to 6.30 | 5.30 to 6.30 | 5.30 to 6.30 |
